A word on the logP: it is the decadic logarithm of the partition coefficient of the neutral form, usually between octanol and water. Lower therefore signals a more hydrophilic compound. As usually defined, the bioavailability is dose-corrected exposure relative to a reference, in per cent. The term AUC(0-inf) denotes total exposure, with the tail of the curve extrapolated. A word on the AUC(0-t): it is the area under the concentration-time curve up to a stated or last time point. Read a high AUC(0-t) as more exposure. The term Cmax denotes the peak of the concentration-time curve. The term half-life denotes the time in which the quantity being followed falls by half. In general, Tmax refers to the time from dosing to the highest level.

Each structure is given as a SMILES string.

For series [1], the system named is Beagle dogs. Kind of series: Single dose toxicity in Beagle dogs. Format: in vivo. The protocol: Formulation of the test sample: a required amount of a sample of the crystalline form A of Example 5 (the solvent used in the crystal preparation was isopropanol) was weighed and added to a mortar, polyethylene glycol-15 hydroxystearate (HS15) in an amount of 2.5% of the total volume was added, and the sample was evenly ground. The mortar was washed with a 0.5% methyl cellulose (MC) solution with grinding, until there was no visible residue. The mixture was transferred to a calibrated container, and then diluted with a 0.5% methyl cellulose solution to the volume. The solution was stirred uniformly with a magnetic stirrer to obtain a suspension, which was used as the test sample.
3 groups (4 dogs per group, half male and half female) were set in the single-dose toxicity test in Beagle dogs, and they were the vehicle control group and the low- and high-dose groups of the crystalline form A of the compound of Formula (I).

Series [2] can be described thus: Stability of the crystalline form A at a high temperature (XRPD). Particulars: 7 days. Format: physicochemical. As for the experimental part: X′Pert3 Powder diffractometer using Cu target radiation was employed, and the detection was performed at room temperature with Absolute scan. The detection range was 3.5° to 40° with a step size of 0.013° and a dwell time of 50 s, scan time: 1. A sample of the crystalline form A of the compound of Formula (I) was allowed to stand under vacuum at 60° C., and samples were taken on Day 2, 5 and 7, respectively, for XRPD detection.

Series [3] is described as follows: Determination of the solubility of the crystalline form A. Format: physicochemical. The settings on record: 25±2° C., Chinese Pharmacopoeia 2015 terms. The protocol: Test solvents: methanol, acetonitrile, ethanol, isopropanol, a 0.1 mol/L aqueous solution of hydrochloric acid and a 0.1 mol/L aqueous solution of sodium hydroxide. Test method: the investigation was conducted according to Item 15(2) of the General Notices in Volume IV of the Chinese Pharmacopoeia (2015 edition). An appropriate amount of a sample of the crystalline form A prepared in Example 5 (the solvent used in the crystal preparation was isopropanol) was weighed and added to a certain volume of the solvent at 25±2° C. The mixture was shaken strongly for 30 seconds at an interval of 5 minutes. […] It was considered to be completely soluble if none of the particles of the solute was observed.

A short description of series [4]: Determination of the log P value (Sirius T3, pH-metric medium log P). The settings on record: titration from low to high pH. Format: physicochemical. As for the experimental part: The log P value of a sample of the crystalline form A prepared in Example 5 (the solvent used in the crystal preparation was isopropanol) was measured with the Sirius T3 instrument for physical and chemical profile determination. The Sirius log P test method (pH-metric medium log P) was employed, wherein the pH-metric medium log P determination mode was selected, and the titration order was from low to high pH.

Series [5] in a line: DVS study (hygroscopicity) of the crystalline form A. Format: physicochemical. The protocol:
The experimental conditions for the dynamic vapor sorption (DVS) were as follows: The detection was performed with DVS Intrinsic (SMS) at 25° C. in a cycle-DMDT mode. The hygroscopicity of a sample of the crystalline form A of the compound of Formula (I) was measured through dynamic vapor sorption (DVS): the hygroscopicity thereof was measured at 25° C., 10% humidity gradient in the range of 0%-90%-0%.

Series [6] is described as follows: Pharmacokinetic experiment of the crystalline form A in rats. Format: in vivo. Particulars: both sexes, Sprague-Dawley (SD), rat, blood, 3 mg/kg. An excerpt: Formulation of the test sample for intravenous administration: the sample of Example 5 (the solvent used in the crystal preparation was isopropanol) was taken and dissolved in 5% DMSO+5% Solutol (HS15)+90% normal saline, to obtain the test sample solution for intravenous administration;
Formulation of the test sample for intragastric administration: the sample of Example 5 (the solvent used in the crystal preparation was isopropanol) was taken and suspended in 97.5% of 0.5% methyl cellulose (MC)+2.5% Solutol (HS15) to obtain a suspension, which was used as the test sample for intragastric administration.
12 SD rats were randomly divided into two groups, groups A and B (6 rats per group, half male and half female). The rats in Group A were each given a single intravenous injection of the sample drug; the rats in Group B were each given the sample drug through intragastric administration, and the dosages are both 3 mg/kg. The blood sampling time points for the intravenous and intragastric administration were before administration and 0.083, 0.25, 0.5, 1.0, 2.0, 4.0, 6.0, 8.0, 10, and 24 h after administration.

Series [7] is described as follows: Stability of the crystalline form A at room temperature (XRPD). The settings on record: 15 days. Format: physicochemical. As for the experimental part:
X′Pert3 Powder diffractometer using Cu target radiation was employed, and the detection was performed at room temperature with Absolute scan. The detection range was 3.5° to 40° with a step size of 0.013° and a dwell time of 50 s, scan time: 1. A sample of the crystalline form A of the compound of Formula (I) was allowed to stand at room temperature, and samples were taken on Day 5 and 15 for XRPD detection.

Series [8] is described as follows: Stability of the crystalline form A under grinding (XRPD). Particulars: ground in a mortar for 5 minutes. Format: physicochemical. The protocol:
X′Pert3 Powder diffractometer using Cu target radiation was employed, and the detection was performed at room temperature with Absolute scan. The detection range was 3.5° to 40° with a step size of 0.013° and a dwell time of 50 s, scan time: 1. A sample of the crystalline form A of the compound of Formula (I) was ground at a constant speed in a mortar, and samples were taken after the grinding was performed for 2 and 5 minutes, respectively, for XRPD detection.

Series [9] has as its system SD rats. The series is described as follows: Single-dose toxicity in SD rats. Format: in vivo. The source says: The mortar was washed with a 0.5% methyl cellulose (MC) solution with grinding, until there was no visible residue. The mixture was transferred to a calibrated container, and then diluted with a 0.5% methyl cellulose solution to the volume. The solution was stirred uniformly with a magnetic stirrer to obtain a suspension, which was used as the test sample.
4 groups (10 rats per group, half male and half female) were set in the single-dose toxicity test in SD rats, and they were the vehicle control group and the low-, medium-, and high-dose groups of the crystalline form A of the compound of Formula (I), respectively.

The target of series [10] is hERG (Homo sapiens, UniProt Q12809). The settings on record: background statement, no test described; cited from earlier work.
The mark [11] stands for this setting: po, SD rats, intragastric, single dose, n = 6.
Setting [12] is: SD rats, intravenous, single dose, n = 6.

Sequence of hERG (Q12809 whole entry): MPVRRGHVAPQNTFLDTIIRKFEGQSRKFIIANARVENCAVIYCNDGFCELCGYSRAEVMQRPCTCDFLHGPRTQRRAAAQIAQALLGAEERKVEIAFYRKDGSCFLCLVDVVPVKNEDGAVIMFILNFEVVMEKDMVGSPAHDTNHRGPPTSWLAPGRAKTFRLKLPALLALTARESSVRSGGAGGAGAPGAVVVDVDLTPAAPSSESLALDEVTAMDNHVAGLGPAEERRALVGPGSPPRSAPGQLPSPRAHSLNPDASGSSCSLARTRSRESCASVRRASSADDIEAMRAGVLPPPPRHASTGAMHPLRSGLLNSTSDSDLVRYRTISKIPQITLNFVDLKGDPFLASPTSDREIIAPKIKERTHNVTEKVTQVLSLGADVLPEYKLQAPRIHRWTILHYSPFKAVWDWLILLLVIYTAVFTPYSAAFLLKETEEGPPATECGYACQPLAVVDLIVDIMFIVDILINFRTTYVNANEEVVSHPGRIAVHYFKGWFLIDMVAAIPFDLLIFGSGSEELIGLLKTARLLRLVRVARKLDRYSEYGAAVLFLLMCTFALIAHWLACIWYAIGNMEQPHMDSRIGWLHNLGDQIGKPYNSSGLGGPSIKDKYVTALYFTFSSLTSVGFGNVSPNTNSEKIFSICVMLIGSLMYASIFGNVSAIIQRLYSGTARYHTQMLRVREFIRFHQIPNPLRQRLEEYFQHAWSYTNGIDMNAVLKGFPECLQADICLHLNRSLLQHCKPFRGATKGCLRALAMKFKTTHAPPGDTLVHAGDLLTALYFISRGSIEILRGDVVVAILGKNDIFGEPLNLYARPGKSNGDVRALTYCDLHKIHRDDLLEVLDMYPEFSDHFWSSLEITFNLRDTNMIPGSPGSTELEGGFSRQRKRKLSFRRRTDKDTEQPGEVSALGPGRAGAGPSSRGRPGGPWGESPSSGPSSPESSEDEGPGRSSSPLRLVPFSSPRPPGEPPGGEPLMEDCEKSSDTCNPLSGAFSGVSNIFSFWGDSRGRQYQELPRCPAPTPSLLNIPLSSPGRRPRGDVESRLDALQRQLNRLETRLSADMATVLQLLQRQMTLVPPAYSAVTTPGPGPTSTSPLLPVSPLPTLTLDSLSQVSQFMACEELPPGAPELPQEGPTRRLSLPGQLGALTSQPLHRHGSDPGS

For the compound `COC(=O)C1=C(CN2CCO[C@H](/C=C/C(=O)O)C2)NC(c2nccs2)=N[C@H]1c1ccc(F)cc1Cl` [crystalline form A, (E)-3-((R)-4-(((R)-6-(2-chloro-4-fluorophenyl)-5-(methoxycarbonyl)-2-(thiazol-2-yl)-3,6-dihydropyrimidin-4-yl)methyl)morpholin-2-yl)acrylic acid], the “tolerability, single dose” value in [1] (Beagle dogs, intragastric, low- and high-dose groups, 14 days observation) is reported as “well tolerated”. For the same compound, the “abnormalities after 14 days” value in [1] (dog, in vivo) is “no abnormalities were observed”. In addition, the “crystalline form after standing under vacuum at 60° C. (XRPD)” value in [2] is recorded as “did not change”. In [3], the “solubility in 0.1 mol/L aqueous solution of hydrochloric acid” value is given as “sparingly soluble”, the “solubility in 0.1 mol/L aqueous solution of sodium hydroxide” value is “sparingly soluble”, the solubility in acetonitrile entry is “soluble” and the solubility in ethanol result was “soluble”. In addition, in [3], the solubility in isopropanol entry is given as “slightly soluble” and the solubility in methanol entry is recorded as “soluble”. The logP in series [4] was 2.4 to 2.6. Moreover, the “weight increase by hygroscopy” value in series [5] (DVS, 25° C., 80% humidity) stood at 0.28%. In addition, the “hygroscopicity class (Chinese Pharmacopoeia 2015)” value in series [5] (weight increase within 0.2%-2%) is recorded as “slightly hygroscopic”. Moreover, the bioavailability in [6] (oral, rats, intragastric vs intravenous, calculated based on AUC0-∞, read-out: absolute bioavailability) was 62.4%. In series [6] (setting [11]), this compound gave an AUC(0-inf) of 6490 ± 2950 ng·h/mL, an AUC(0-t) of 6460 ± 2940 ng·h/mL, a Cmax of 3980 ± 1440 ng/mL and a half-life of 60.6 ± 15.6 min. Also, in series [6] (po, SD rats, intragastric, single dose, n = 6, median (range in next line)), the Tmax came out at 22.8 min. Moreover, in series [6] (setting [12]), the area under the curve AUC(0-inf) is 10400 ± 4500 ng·h/mL, the AUC(0-t) came to 10400 ± 4500 ng·h/mL, the concentration peaked (Cmax) at 9210 ± 2100 ng/mL and the half-life is 52.8 ± 10.8 min. In series [7], the “crystalline form after standing at room temperature (XRPD)” value is “did not change”. The “crystalline form after grinding (XRPD)” value in [8] is on record as “did not change”. In addition, in [9] (intragastric single dose, condition, body weight, food intake, hematology, blood biochemistry, gross anatomy), the “abnormalities after 14 days” value is “no abnormalities were observed”. Further, the “tolerability, single dose” value in series [9] (intragastric, low-, medium-, high-dose groups, 14 days observation) is “well tolerated”.

With `COC(=O)C1=C(CN2CCO[C@H](/C=C/C(=O)O)C2)NC(c2nccs2)=N[C@H]1c1ccc(F)cc1Cl` [compound of Formula (I), (E)-3-((R)-4-(((R)-6-(2-chloro-4-fluorophenyl)-5-(methoxycarbonyl)-2-(thiazol-2-yl)-3,6-dihydropyrimidin-4-yl)methyl)morpholin-2-yl)acrylic acid], the cardiotoxicity entry in series [10] was “no cardiotoxicity”.

The values above are taken from patent US11434235B2, “Solid form of dihydropyrimidine compound and preparation method therefor and use thereof” (SICHUAN KELUN-BIOTECH BIOPHARMACEUTICAL CO., LTD., priority 2018, dated 2022).
